Assay results reported in ChEMBL document CHEMBL5584266, “Novel selective proline-based peptidomimetics for human cathepsin K inhibition” (Bioorg Med Chem Lett, 2024).

Columns and labels:
[1] = biological target: Procathepsin L (Homo sapiens, UniProt P07711); test: Binding affinity to human Cathepsin L assessed as inhibition constant
[2] = biological target: Cathepsin B (Homo sapiens, UniProt P07858); test: Binding affinity to human Cathepsin B assessed as inhibition constant
[3] = biological target: T1, Cathepsin K (Homo sapiens, UniProt P43235); test: Binding affinity to human Cathepsin K assessed as inhibition constant
T1 sequence (P43235 whole entry): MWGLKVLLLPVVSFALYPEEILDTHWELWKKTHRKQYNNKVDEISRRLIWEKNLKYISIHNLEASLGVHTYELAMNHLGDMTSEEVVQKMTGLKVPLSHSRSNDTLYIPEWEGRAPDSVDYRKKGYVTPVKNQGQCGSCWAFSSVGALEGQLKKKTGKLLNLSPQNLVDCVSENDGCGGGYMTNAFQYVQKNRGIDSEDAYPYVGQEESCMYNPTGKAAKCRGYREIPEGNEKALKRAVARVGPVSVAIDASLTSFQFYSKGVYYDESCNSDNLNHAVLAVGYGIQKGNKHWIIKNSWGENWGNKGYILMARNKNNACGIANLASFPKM

[4] = biological target: Cathepsin S (Homo sapiens, UniProt P25774); test: Binding affinity to human Cathepsin S assessed as inhibition constant
Chain of Cathepsin S (P25774 whole entry): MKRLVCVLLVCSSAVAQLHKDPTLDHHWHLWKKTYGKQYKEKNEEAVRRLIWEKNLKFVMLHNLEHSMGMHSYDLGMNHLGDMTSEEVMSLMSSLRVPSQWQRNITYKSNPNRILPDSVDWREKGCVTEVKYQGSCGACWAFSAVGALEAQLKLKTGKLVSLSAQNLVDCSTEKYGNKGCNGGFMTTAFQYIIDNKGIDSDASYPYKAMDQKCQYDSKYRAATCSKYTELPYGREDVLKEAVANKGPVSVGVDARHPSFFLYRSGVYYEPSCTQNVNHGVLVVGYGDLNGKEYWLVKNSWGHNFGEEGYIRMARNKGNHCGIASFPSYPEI

Chain of Procathepsin L (P07711 whole entry): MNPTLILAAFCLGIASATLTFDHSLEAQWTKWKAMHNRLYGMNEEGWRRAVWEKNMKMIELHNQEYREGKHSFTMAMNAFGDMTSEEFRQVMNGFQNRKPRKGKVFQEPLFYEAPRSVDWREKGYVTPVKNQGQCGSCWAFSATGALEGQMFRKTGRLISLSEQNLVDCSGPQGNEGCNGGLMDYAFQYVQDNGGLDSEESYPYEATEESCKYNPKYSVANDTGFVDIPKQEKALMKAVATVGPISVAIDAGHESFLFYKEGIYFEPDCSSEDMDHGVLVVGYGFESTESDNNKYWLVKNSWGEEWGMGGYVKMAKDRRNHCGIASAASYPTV

| SMILES | Ki ([1]; read-out: pKi (converted)) [µM] | Ki [2] [µM] | Ki ([3]; read-out: Ki) [µM] | Ki ([1]; read-out: Ki) [µM] | Ki [4] [µM] | Ki ([3]; read-out: pKi (converted)) [µM] |
| --- | --- | --- | --- | --- | --- | --- |
| CC(C)C[C@H](NC(=O)c1cc(C(C)(C)C)nn1C)C(=O)NC1(C#N)CC1 | 0.00158 | > 100 | ~0.008 | ~0.008 | 0.0794 | – |
| C[C@H]1C[C@@H](C(=O)NC2(C#N)CC2)N(S(=O)(=O)c2cc(C(F)(F)F)nn2C)C1 | > 100 | > 100 | – | – | – | – |
| C[C@H]1C[C@@H](C(=O)NC2(C#N)CC2)N(C(=O)Cc2ccccc2)C1 | > 100 | > 100 | – | – | – | – |
| CC(C)(F)C[C@H](N[C@@H](c1ccc(-c2ccc(S(C)(=O)=O)cc2)cc1)C(F)(F)F)C(=O)NC1(C#N)CC1 [ODANACATIB] | – | – | – | – | – | 0.0002 |

Results, then the molecule that gave them:

| Ki ([1]; read-out: pKi (converted)) [µM] | Ki [2] [µM] | Ki ([3]; read-out: Ki) [µM] | Ki ([1]; read-out: Ki) [µM] | Ki [4] [µM] | Ki ([3]; read-out: pKi (converted)) [µM] | SMILES |
| --- | --- | --- | --- | --- | --- | --- |
| > 100 | > 100 | – | – | – | – | C[C@H]1C[C@@H](C(=O)NC2(C#N)CC2)N(C(=O)OC(C)(C)C)C1 |
| > 100 | > 100 | – | – | – | – | C[C@H]1C[C@@H](C(=O)NC2(C#N)CC2)N(C(=O)c2ccccc2)C1 |
| > 100 | > 100 | – | – | – | – | C[C@H]1C[C@@H](C(=O)NC2(C#N)CC2)N(C(=O)c2cc(C(C)(C)C)nn2C)C1 |
| > 100 | > 100 | – | – | – | – | C[C@H]1C[C@@H](C(=O)NC2(C#N)CC2)N(C(=O)c2cc(C(F)(F)F)nn2C)C1 |
